Data published in PMC11996864, “A small-molecule inhibitor of BCL10-MALT1 interaction abrogates progression of diffuse large B cell lymphoma” (The Journal of Clinical Investigation, 2025).
Where “and” joins values, the source holds several entries; their conditions need not be identical. Equal values may be shown once.

How the values were obtained:
full-length MALT1 = biological target: T1, full-length MALT1 (Homo sapiens, UniProt Q9UDY8); test: SPR binding of M1i-124 to immobilized full-length MALT1; conditions: steady-state affinity model; read-out: equilibrium dissociation constant (KD)
T1 construct: full-length GST-tagged MALT1 (Novus, catalog H00010892-P01) protein; purchased Novus H00010892-P01
T1 sequence (Q9UDY8 1-813 isoform Q9UDY8-2): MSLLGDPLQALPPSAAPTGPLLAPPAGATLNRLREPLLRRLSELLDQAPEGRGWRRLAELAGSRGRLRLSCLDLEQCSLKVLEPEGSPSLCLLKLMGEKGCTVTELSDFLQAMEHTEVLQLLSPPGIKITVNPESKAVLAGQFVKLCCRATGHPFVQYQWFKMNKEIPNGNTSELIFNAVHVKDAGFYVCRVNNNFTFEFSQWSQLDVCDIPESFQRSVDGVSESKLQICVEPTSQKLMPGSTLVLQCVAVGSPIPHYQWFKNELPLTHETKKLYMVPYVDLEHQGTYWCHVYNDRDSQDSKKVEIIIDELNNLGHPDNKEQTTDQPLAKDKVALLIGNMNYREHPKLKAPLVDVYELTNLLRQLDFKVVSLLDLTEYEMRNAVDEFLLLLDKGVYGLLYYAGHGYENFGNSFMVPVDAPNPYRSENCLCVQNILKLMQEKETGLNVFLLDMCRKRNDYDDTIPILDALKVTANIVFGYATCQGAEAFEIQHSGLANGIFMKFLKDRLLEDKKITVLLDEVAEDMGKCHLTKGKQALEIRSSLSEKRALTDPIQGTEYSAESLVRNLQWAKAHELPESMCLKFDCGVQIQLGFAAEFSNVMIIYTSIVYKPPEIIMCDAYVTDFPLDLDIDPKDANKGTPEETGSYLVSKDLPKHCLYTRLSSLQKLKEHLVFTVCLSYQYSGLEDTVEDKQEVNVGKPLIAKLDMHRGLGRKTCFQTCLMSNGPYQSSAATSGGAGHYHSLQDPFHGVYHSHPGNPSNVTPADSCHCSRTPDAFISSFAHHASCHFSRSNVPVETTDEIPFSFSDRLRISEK
Procedure: Surface plasmon resonance (SPR) experiments were performed on a Biacore 2000 system (Cytiva). Full-length GST-BCL10 (Abnova, catalog H00008915-P01) was immobilized onto a gold sensor chip surface, and analyte solution containing MALT1(DD+Ig1-2), MALT1(DD), or MALT1(Ig1-2) purified protein was injected over the surface through a series of flow cells (see Supplemental Methods for details on protein purification). The binding kinetic parameters were obtained using the Langmuir model for global fitting with 1:1 binding ratio where one ligand molecule interacts with one analyte molecule. The equilibrium dissociation constant (KD) of M1i-124 to full-length GST-tagged MALT1 (Novus, catalog H00010892-P01) protein was determined by Creative Biolabs using Biacore T200. Full-length MALT1 protein was immobilized onto CM5 sensor chip surface, and M1i-124 was injected at concentrations of 0, 12.5, 25, 50, 100, and 200 μM. The steady-state affinity model was used to determine the KD.

CYP2D6 = biological target: T2, CYP2D6 (Homo sapiens, UniProt P10635); test: Reversible CYP inhibition in human liver microsomes; assay type: in vitro ADME; conditions: read-out: Direct inhibition (IC50) CYP2D6
T2 construct: from tissue; host or cells: pooled, mixed-gender human liver microsomes
T2 sequence (P10635 whole entry): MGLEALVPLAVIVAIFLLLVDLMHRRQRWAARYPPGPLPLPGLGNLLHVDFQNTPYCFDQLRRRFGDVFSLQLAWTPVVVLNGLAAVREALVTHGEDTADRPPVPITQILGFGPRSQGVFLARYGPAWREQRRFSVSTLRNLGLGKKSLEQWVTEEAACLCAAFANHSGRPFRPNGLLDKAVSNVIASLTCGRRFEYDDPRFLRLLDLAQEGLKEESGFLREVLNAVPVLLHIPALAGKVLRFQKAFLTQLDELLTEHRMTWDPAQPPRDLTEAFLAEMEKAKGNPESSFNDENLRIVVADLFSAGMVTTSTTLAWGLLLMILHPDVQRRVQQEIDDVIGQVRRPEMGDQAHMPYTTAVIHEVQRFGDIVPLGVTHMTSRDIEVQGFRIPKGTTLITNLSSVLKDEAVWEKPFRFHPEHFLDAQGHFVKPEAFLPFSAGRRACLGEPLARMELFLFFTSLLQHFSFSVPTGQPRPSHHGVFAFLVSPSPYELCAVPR
Procedure: (§1) Pharmacokinetic and cytochrome P450 inhibition studies. Studies were performed with the assistance of Touchstone Biosciences (Plymouth Meeting, Pennsylvania). […]
(§2) For reversible CYP […]
(§3) inhibition studies, different concentrations of M1i-124 were added to 0.2 mg/ml pooled, mixed-gender human liver microsomes (HLM). Each CYP450 isoform-specific probe substrate (CYP1A2, CYP2C9, CYP2C19, CYP2D6, and CYP3A4) was incubated individually with HLM and M1i-124 or corresponding positive control inhibitor (Phenacetin, Tolbutamaide, S-Mephenytoin, Dextromethorphan, Midazolam, and Testosterone). Samples were analyzed for metabolites of the probe substrates by LC-MS/MS at each of the test compound concentrations. A decrease in the formation of the metabolites compared to vehicle control was used to calculate the […]

CYP3A4T = biological target: T3, CYP3A4T (Homo sapiens, UniProt P08684); test: as above; assay type: in vitro ADME; conditions: read-out: Direct inhibition (IC50) CYP3A4T
T3 construct: from tissue; host or cells: pooled, mixed-gender human liver microsomes
T3 sequence (P08684 whole entry): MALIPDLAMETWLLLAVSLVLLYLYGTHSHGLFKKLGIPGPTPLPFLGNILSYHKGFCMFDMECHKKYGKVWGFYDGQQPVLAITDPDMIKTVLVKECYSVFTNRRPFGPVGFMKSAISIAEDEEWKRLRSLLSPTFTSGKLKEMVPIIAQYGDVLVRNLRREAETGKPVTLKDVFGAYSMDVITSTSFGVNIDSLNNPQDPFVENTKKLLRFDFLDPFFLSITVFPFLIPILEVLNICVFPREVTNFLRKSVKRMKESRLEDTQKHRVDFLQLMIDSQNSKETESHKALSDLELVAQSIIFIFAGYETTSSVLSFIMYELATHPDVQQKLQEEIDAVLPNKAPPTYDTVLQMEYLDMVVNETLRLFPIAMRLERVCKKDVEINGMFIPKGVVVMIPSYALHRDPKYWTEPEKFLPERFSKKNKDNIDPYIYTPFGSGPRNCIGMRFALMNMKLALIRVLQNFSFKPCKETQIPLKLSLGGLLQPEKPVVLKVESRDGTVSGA
Procedure: as §1, §2, §3

CYP3A4M = biological target: T4, CYP3A4M (Homo sapiens, UniProt P08684); test: as above; assay type: in vitro ADME; conditions: read-out: Direct inhibition (IC50) CYP3A4M
T4 construct: from tissue; host or cells: pooled, mixed-gender human liver microsomes
T4 sequence (P08684 whole entry): as above
Procedure: as §1, §2, §3

CYP2C19 = biological target: T5, CYP2C19 (Homo sapiens, UniProt P33261); test: as above; assay type: in vitro ADME; conditions: read-out: Direct inhibition (IC50) CYP2C19
T5 construct: from tissue; host or cells: pooled, mixed-gender human liver microsomes
T5 sequence (P33261 whole entry): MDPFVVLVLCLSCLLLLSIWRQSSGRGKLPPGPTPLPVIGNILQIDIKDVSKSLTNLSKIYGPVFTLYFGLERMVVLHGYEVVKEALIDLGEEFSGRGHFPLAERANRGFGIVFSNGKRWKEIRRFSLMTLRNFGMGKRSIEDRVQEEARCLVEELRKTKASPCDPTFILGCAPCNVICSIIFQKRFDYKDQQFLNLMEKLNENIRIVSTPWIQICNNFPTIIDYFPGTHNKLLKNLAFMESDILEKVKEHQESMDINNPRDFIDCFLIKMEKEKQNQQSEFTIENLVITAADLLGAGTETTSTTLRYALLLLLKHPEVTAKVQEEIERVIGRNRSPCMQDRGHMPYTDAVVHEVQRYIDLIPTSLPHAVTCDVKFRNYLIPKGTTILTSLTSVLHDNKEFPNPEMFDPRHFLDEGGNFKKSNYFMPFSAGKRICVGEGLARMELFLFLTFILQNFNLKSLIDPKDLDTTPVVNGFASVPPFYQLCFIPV
Procedure: as §1, §2, §3

CYP2C9 = biological target: T6, CYP2C9 (Homo sapiens, UniProt P11712); test: as above; assay type: in vitro ADME; conditions: read-out: Direct inhibition (IC50) CYP2C9
T6 construct: from tissue; host or cells: pooled, mixed-gender human liver microsomes
T6 sequence (P11712 whole entry): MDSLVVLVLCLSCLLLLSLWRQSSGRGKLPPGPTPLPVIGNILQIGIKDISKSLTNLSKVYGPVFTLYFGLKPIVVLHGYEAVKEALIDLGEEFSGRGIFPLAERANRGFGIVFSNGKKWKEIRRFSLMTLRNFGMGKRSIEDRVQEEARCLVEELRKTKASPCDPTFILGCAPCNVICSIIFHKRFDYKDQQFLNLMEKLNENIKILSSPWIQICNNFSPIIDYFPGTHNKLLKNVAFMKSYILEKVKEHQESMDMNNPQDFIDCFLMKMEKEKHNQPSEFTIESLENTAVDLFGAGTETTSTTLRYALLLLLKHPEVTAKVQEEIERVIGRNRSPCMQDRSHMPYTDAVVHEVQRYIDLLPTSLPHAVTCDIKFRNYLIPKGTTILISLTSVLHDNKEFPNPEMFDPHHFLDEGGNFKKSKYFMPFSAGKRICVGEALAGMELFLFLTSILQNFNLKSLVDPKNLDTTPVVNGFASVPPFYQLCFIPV
Procedure: as §1, §2, §3

CYP1A2 = biological target: T7, CYP1A2 (Homo sapiens, UniProt P05177); test: as above; assay type: in vitro ADME; conditions: read-out: Direct inhibition (IC50) CYP1A2
T7 construct: from tissue; host or cells: pooled, mixed-gender human liver microsomes
T7 sequence (P05177 whole entry): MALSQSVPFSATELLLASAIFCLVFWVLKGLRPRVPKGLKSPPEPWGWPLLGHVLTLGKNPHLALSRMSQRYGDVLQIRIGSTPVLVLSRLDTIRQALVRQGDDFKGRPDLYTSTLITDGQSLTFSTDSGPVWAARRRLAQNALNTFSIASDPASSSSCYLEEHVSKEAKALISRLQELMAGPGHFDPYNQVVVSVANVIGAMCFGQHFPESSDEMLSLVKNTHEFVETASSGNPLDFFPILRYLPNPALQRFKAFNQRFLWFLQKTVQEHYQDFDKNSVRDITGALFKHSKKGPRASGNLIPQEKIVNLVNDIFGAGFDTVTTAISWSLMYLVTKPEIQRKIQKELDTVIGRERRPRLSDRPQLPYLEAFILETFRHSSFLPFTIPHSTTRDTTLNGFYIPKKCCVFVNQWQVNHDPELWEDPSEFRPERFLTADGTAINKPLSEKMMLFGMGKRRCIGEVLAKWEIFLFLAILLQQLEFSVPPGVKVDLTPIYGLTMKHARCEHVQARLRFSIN
Procedure: as §1, §2, §3

OCI-Ly3 cells = test: Apoptosis, annexin V/SYTOX Blue flow cytometry; assay type: cell-based, human
Procedure: Cell proliferation, viability, and apoptosis assays. […]
Annexin V Alexa 488
(ThermoFisher Scientific, Cat# A13201) and SYTOX Blue Dead Cell (ThermoFisher Scientific, Cat# S34857) stains were used to detect apoptosis in DLBCL cells after treatment with 1 µM compounds for 8 days in TMD8 and OCI-Ly1 and for 5 days in OCI-Ly3 cells, then analyzed with flow cytometry. The percentages of cells in early and late apoptosis were combined for quantification. For CellTrace Violet, CellTiter-glo, and Annexin V apoptosis assays, cell were cultured in media with 50% of the usual serum. […]

TMD8 cells = test: cells; set-up: species or system TMD8 or OCI-Ly3; Inhibition of spontaneous IL-10 secretion from ABC-DLBCL cells, human IL-10 ELISA of supernatants; conditions: Homo sapiens, TMD8, 20 h; IL-10 secretion; read-out: IC50 (µM) IL-10 inhibition
Procedure: Cytokine ELISAs. Cytokines in cell culture supernatants were measured 20-24h after treatment with 0, 0.01, 0.03, 0.1, 0.3, 1, or 3 µM of compounds using the following ELISA kits according to the manufacturer’s instructions: Human IL-2 ELISA (BioLegend Cat# 431804), Human IL-6 ELISA (BioLegend Cat# 430504), and Human IL-10 ELISA (BioLegend Cat# 430604). TMD8 and OCI-Ly3 cells were treated with specific doses of compounds in serum-free media for 20 hours. Jurkat T cells were pretreated with specific doses of compounds for 8 hours in serum-free media, then stimulated with PMA/ionomycin for 16 hours prior to the collection of supernatants. Mouse splenocytes were isolated from spleens of C57/BL6 mice by passing spleens through a 70 micron filter followed by red blood cell lysis using ACK lysing buffer (Quality Biologics, Cat# 118-156-101). […] Supernatant was collected at 24 hours and mouse IL-2 levels were analyzed via ELISA (R&D Systems, Cat# DY402-05). IL-6 and IL-10 are NF-κB–induced cytokines that promote the proliferation and survival of malignant B cells through both autocrine and paracrine mechanisms ([44]), and are negative prognostic factors in ABC-DLBCL ([45], [46]). ABC-DLBCL cell lines spontaneously secrete substantial levels of IL-6 and IL-10, whereas GCB-DLBCL cell lines express only a negligible amount of these cytokines ([24]). […] The IC50 for inhibition of cytokine secretion by each compound in each cell line is reported in Supplemental Table 1.  Figure 4 M1i-124 and M1i-124d1 inhibit MALT1 protease and scaffolding functions, and MALT1-dependent cytokine secretion, in ABC-DLBCL cells. (A and B) Effect of 1 μM compound pretreatment on constitutive RelB cleavage (A) and IκB phosphorylation (B) within TMD8 cells. Representative Western blots are shown along with quantification (mean ± SEM; n = 2). (C) IL6 and IL10 mRNA levels in TMD8 cells treated with 1 μM M1i-124 or M1i-124d1 (mean ± SEM; n = 6). […] Statistical analyses were performed using 1-way ANOVA and Dunnett’s multiple-comparison test. **P < 0.01, ***P < 0.001, ****P < 0.0001.

SMILES | Kd (full-length MALT1) [µM] | IC50 (CYP2D6) [µM] | IC50 (CYP3A4T) [µM] | IC50 (CYP3A4M) [µM] | IC50 (CYP2C19) [µM] | IC50 (CYP2C9) [µM] | IC50 (CYP1A2) [µM] | apoptosis of OCI-Ly3 cells (OCI-Ly3 cells; 1 μM, result in words) | Percent Apoptotic cells (OCI-Ly3 cells; OCI-Ly3) | IC50 (TMD8 cells) [µM]
O=S(=O)(NCc1ccc2c(c1)OCO2)c1ccc(Cc2ccc(S(=O)(=O)NCc3ccc4c(c3)OCO4)cc2)cc1 [M1i-124] | 296 | 13 | 40 | 28 | 28 | 21 | > 100 | selectively induced apoptosis | 91.3% and 82.7% and 75% and 93.6% and 88.1% and 93.3% and 87.8% and 75.8% | 
COc1ccc(CNS(=O)(=O)c2ccc(Cc3ccc(S(=O)(=O)NCc4ccc(OC)cc4)cc3)cc2)cc1 [M1i-124d1] |  |  |  |  |  |  |  |  |  | 0.2
